According to patent US11505573B2, “Peptide macrocycles against Acinetobacter baumannii” (Hoffmann-La Roche Inc., priority 2018, dated 2022):
pIC50: −log10 of the molar value.

Test system: A. baumannii ATCC 17978
Assay: Antimicrobial susceptibility testing: 50% growth inhibitory concentration (IC50) determination in Iso-Sensitest broth
Type: cell-based
Settings: Acinetobacter baumannii; A. baumannii strain ATCC17978; Iso-Sensitest medium; OD 600 nm over 16 h; 35±2° C.; read-out: IC50 ATCC17978 (50% growth inhibition concentration)
Procedure: Antimicrobial Susceptibility Testing: 50% Growth Inhibitory Concentration (IC50) Determination The in vitro antimicrobial activity of the compounds was alternatively determined according to the following procedure: The assay used a 10-points Iso-Sensitest broth medium to measure quantitatively the in vitro activity of the compounds against A. baumannii ATCC 17978. Stock compounds in DMSO were serially twofold diluted (e.g. range from 10 to 0.02 μM final concentration) in 384 wells microtiter plates and inoculated with 49 μl the bacterial suspension in Iso-Sensitest medium to have a final cell concentration of ˜5×10^(5) CFU/ml in a final volume/well of […] Microtiter plates were incubated at 35±2° C. Bacterial cell growth was determined by the measurement of optical density at λ=600 nm each 20 minutes over a time course of 16 h. Growth inhibition was calculated during the logarithmic growth of the bacterial cells by determination of the concentration inhibiting 50% (IC50) and 90% (IC90) of the growth. Table 1 provides the 50% growth inhibitory concentrations (IC50) in micromoles per liter of the compounds of present invention obtained against the A. baumannnii strain ATCC17978.

| SMILES | pIC50 |
| --- | --- |
| CN1C(=O)[C@H](CCCCN)NC(=O)[C@H](CCCN)NCc2cccnc2Sc2c(Cl)ccc(-c3ccc(S(=O)(=O)O)cc3)c2CNC(=O)[C@@H]1Cc1c[nH]c2ccccc12 [Example 1.00, 4-[(11S,14S,17S)-14-(4-Aminobutyl)-11-(3-aminopropyl)-25-chloro-17-(1H-indol-3-ylmethyl)-16-methyl-12,15,18-trioxo-2-thia-4,10,13,16,19-pentazatricyclo[19.4.0.03,8]pentacosa-1(25),3,5,7,21,23-hexaen-22-yl]benzenesulfonic acid] | 7.70 |
| CN1C(=O)[C@H](CCCCN)NC(=O)[C@H](CCCN)NCc2cccnc2Sc2c(Cl)ccc(-c3ccc4nn[nH]c4c3)c2CNC(=O)[C@@H]1Cc1c[nH]c2ccccc12 [Example 1.01, (11S,14S,17S)-14-(4-aminobutyl)-11-(3-aminopropyl)-22-(3H-benzotriazol-5-yl)-25-chloro-17-(1H-indol-3-ylmethyl)-16-methyl-2-thia-4,10,13,16,19-pentazatricyclo[19.4.0.03,8]pentacosa-1(25),3,5,7,21,23-hexaene-12,15,18-trione] | 7.70 |
| CN1C(=O)[C@H](CCCCN)NC(=O)[C@H](CCCN)NCc2cccnc2Sc2c(Cl)ccc(-c3ccc(-c4nnn[nH]4)cc3)c2CNC(=O)[C@@H]1Cc1c[nH]c2ccccc12 [Example 1.02, (11S,14S,17S)-14-(4-aminobutyl)-11-(3-aminopropyl)-25-chloro-17-(1H-indol-3-ylmethyl)-16-methyl-22-[4-(1H-tetrazol-5-yl)phenyl]-2-thia-4,10,13,16,19-pentazatricyclo[19.4.0.03,8]pentacosa-1(25),3,5,7,21,23-hexaene-12,15,18-trione] | 7.00 |
| CN1C(=O)[C@H](CCCCN)NC(=O)[C@H](CCCN)NCc2cccnc2Sc2c(Cl)ccc(-c3cccc(-c4nnn[nH]4)c3)c2CNC(=O)[C@@H]1Cc1c[nH]c2ccccc12 [Example 1.03, (11S,14S,17S)-14-(4-aminobutyl)-11-(3-aminopropyl)-25-chloro-17-(1H-indol-3-ylmethyl)-16-methyl-22-[3-(1H-tetrazol-5-yl)phenyl]-2-thia-4,10,13,16,19-pentazatricyclo[19.4.0.03,8]pentacosa-1(25),3,5,7,21,23-hexaene-12,15,18-trione] | 6.44 |
| CC(=O)NS(=O)(=O)c1ccc(-c2ccc(Cl)c3c2CNC(=O)[C@H](Cc2c[nH]c4ccccc24)N(C)C(=O)[C@H](CCCCN)NC(=O)[C@H](CCCN)NCc2cccnc2S3)cc1 [Example 1.04, N-[4-[(11S,14S,17S)-14-(4-aminobutyl)-11-(3-aminopropyl)-25-chloro-17-(1H-indol-3-ylmethyl)-16-methyl-12,15,18-trioxo-2-thia-4,10,13,16,19-pentazatricyclo[19.4.0.03,8]pentacosa-1(21),3,5,7,22,24-hexaen-22-yl]phenyl]sulfonylacetamide] | 7.70 |
| CN1C(=O)[C@H](CCCCN)NC(=O)[C@H](CCCN)NCc2cccnc2Sc2c(Cl)ccc(-c3cnc(=O)[nH]c3)c2CNC(=O)[C@@H]1Cc1c[nH]c2ccccc12 [Example 1.05, (11S,14S,17S)-14-(4-aminobutyl)-11-(3-aminopropyl)-25-chloro-17-(1H-indol-3-ylmethyl)-16-methyl-22-(2-oxo-1H-pyrimidin-5-yl)-2-thia-4,10,13,16,19-pentazatricyclo[19.4.0.03,8]pentacosa-1(25),3,5,7,21,23-hexaene-12,15,18-trione] | 7.70 |
| CN1C(=O)[C@H](CCCCN)NC(=O)[C@H](CCCN)NCc2cccnc2Sc2c(Cl)ccc(-c3ccn(Cc4nnn[nH]4)c(=O)c3)c2CNC(=O)[C@@H]1Cc1c[nH]c2ccccc12 [Example 2.00, (11S,14S,17S)-14-(4-Aminobutyl)-11-(3-aminopropyl)-25-chloro-17-(1H-indol-3-ylmethyl)-16-methyl-22-[2-oxo-1-(1H-tetrazol-5-ylmethyl)-4-pyridyl]-2-thia-4,10,13,16,19-pentazatricyclo[19.4.0.03,8]pentacosa-1(25), 3(8),4,6,21,23-hexaene-12,15,18-trione] | 7.10 |
